Earlier results on 1 compound are cited in US7847120B2, “Compositions of allosteric hemoglobin modifiers and methods of making the same” (Virginia Commonwealth University Intellectual Property …, priority 2004, dated 2010).

In one data set the test system is tissue oxygenation. The note with it: in vivo.
For data set [1], the system named is EMT6 mouse mammary tumors. The note with it: efaproxiral plus oxygen breathing, Rockwell and Kelley 1998.
In the next data set the test system is mouse fibrosarcoma tumor. The note with it: combination of efaproxiral and radiation relative to radiation alone.

On to `Cc1cc(C)cc(NC(=O)Cc2ccc(OC(C)(C)C(=O)O)cc2)c1` [efaproxiral, 2-[4-((((3,5-dimethylphenyl)amino)carbonyl)methyl)phenoxy]-2-methyl propionic acid], for which the tissue oxygenation entry in the data set with tissue oxygenation is recorded as “enhance tissue oxygenation in vivo”. Moreover, in data set [1] (EMT6 mouse mammary tumors), the “effect of radiation in tumors” value was “Enhancement of the effect of radiation was observed”. For the same compound, in data set [1] (normal tissues), the “radiation effects in normal tissues” value was “absence of enhanced radiation effects”. For the same compound, in the data set with mouse fibrosarcoma tumor, the tumor growth entry is “reduced”.
